Experimental data published in patent publication US20050170481A1, “Novel (d)-2-hydroxy-acid oxidase derived from microorganism and biochemical process for producing glyoxylic acid therewith” (priority 2002, published 2005).

Legend:
[1] = tested on: (D)-2-hydroxy-acid oxidase (enzyme of the present invention); test: Oxidase reaction activity (H2O2 / 4-AA / TOOS / POD, absorbance at 555 nm), substrate specificity; format: biochemical, Arthrobacter sp. KNK-GA1 strain; conditions: for Relative activity (%): Table 2, 30° C., 100 seconds; for activity of the (D)-2-hydroxy-acid oxidase for the substrate (in words): summary of Table 1
Description: The reaction activity of oxidase is basically measured by adding 0.1 ml of an enzyme solution to 0.9 ml of a 100 mM phosphate buffer (pH 7) having the composition below, and measuring an increase in absorbance at a wavelength of 555 nm at 30° C. In the present invention, when 1 μmol of H2O2 is produced for 1 minute, the enzyme activity is defined as 1 unit.
The enzymatic properties of the enzyme produced in Example 6 were measured.
(§1) The enzyme activity was basically measured by reacting 1.0 ml of a reaction solution containing 10 mM of a substrate such as glycolic acid, 0.67 mM of 4-AA, 1.09 mM of TOOS, 2 U/ml of POD, and 0.1 ml of an enzyme solution in a 100 mM phosphate buffer or Tris buffer at 30° C. for 100 seconds, and then measuring an increase in absorbance at a wavelength of 555 nm.

[2] = biological target: T1, glycolate oxidase (produced by Sigma Corporation) derived from spinach (Spinacia oleracea, UniProt P05414); test: Substrate specificity of glycolate oxidase derived from spinach; format: biochemical
T1 construct: purchased Sigma Corporation
T1 sequence (P05414 1-369): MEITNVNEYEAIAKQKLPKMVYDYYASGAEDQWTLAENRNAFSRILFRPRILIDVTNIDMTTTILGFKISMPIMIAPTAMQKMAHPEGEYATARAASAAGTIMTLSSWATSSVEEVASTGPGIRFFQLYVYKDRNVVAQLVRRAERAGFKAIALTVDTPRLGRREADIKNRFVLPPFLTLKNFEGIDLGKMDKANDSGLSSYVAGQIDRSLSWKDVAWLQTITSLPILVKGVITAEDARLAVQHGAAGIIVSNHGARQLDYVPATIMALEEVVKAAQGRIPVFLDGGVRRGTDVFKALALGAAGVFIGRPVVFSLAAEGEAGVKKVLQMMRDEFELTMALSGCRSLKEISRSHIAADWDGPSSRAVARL
Description: In Table 1, the activity of each enzyme for glycolic acid is […] regarded as 100%.
as §1
The activity of glycolate oxidase (produced by Sigma Corporation) derived from spinach was examined for various 2-hydroxy acid compounds, and the results were compared with the results of the enzyme of the present invention produced in Example […].

[3] = tested on: glycolate oxidase; conditions: Table 1; activity for glycolic acid regarded as 100%; J. Biochem., 16, 1373-1378, 1984; cited from earlier work
[4] = tested on: glycolate oxidase; conditions: Table 1; activity for glycolic acid regarded as 100%; J. Phycol., 32, 790-798, 1996; cited from earlier work
[5] = tested on: lactic acid oxidase derived from soil gram-negative bacteria; conditions: Appl. Biochem. Biotechnol., 56, 277-288, 1996; cited from earlier work
[6] = Table 1, activity for glycolic acid regarded as 100%

Row | Molecule | Relative activity (%) ([1]; Substrate 10 mM) | Relative activity (%), Enzyme of this invention [1, 6] [%] | Relative activity (%), Enzyme of this invention ([1]; Table 3, Substrate 10 mM) [%] | activity of the (D)-2-hydroxy-acid oxidase for the substrate (in words) [1] | Relative activity (%), Spinach [2, 6] [%] | Relative activity (%), Spinach ([2]; Table 3, Substrate 10 mM) [%] | Relative Activity (%), Lemna minor [3] [%] | Relative Activity (%), Spatoglossum pacificum [4] [%] | activity for L-lactic acid as rate of the activity for D-lactic acid [5] [%]
1 | CC(C)O [2-propanol] | 0 |  |  |  |  |  |  |  | 
2 | CC(O)CO (stereo not shown) [1,2-propanediol] | 0 |  |  |  |  |  |  |  | 
3 | CCO [Ethanol] | 0 |  |  |  |  |  |  |  | 
4 | CC(C)CC(O)C(=O)O (racemic) [DL-2-hydroxyisocaproic acid] | 10 | 10 | 10 | shows activity | 51 | 51 |  |  | 
5 | OCCO [Ethylene glycol] | 0 |  |  |  |  |  |  |  | 
6 | O=C(O)CCO [β-hydroxypropionic acid] | 1 |  |  |  |  |  |  |  | 
7 | 1-propanol | 0 |  |  |  |  |  |  |  | 
8 | CCCC(O)C(=O)O (racemic) [DL-2-hydroxyvaleric acid] | 32 | 32 | 32 |  | 70 | 70 | 52 | 91 | 
9 | O=C(O)CC(O)C(=O)O (racemic) [DL-malic acid] | 0 |  |  |  |  |  |  |  | 
10 | CCCCC(O)C(=O)O (racemic) [DL-2-hydroxycaproic acid] | 7 | 7 | 7 |  | 29 | 29 | 13 |  | 
11 | OCC(O)CO [Glycerin] | 0 |  |  |  |  |  |  |  | 
12 | O=C(O)CO [Glycolic acid] | 100 | 100 | 100 | high activity | 100 | 100 | 100 | 100 | 
13 | O=CC(=O)O [Glyoxylic acid] |  | 4 |  | relatively low activity | 8 |  | 35 | 14 | 
14 | CO [Methanol] | 0 |  |  |  |  |  |  |  | 
15 | C[C@@H](O)C(=O)O [D-lactic acid] | 82 | 82 | 82 | high activity | 0 | 0 | 7 | 0 | 
16 | C[C@H](O)C(=O)O [L-lactic acid] | 0 | 0 | 0 | no activity | 81 | 81 | 60 | 26 | 57
17 | CCC(O)C(=O)O (racemic) [DL-2-hydroxybutyric acid] | 42 | 42 | 42 |  | 71 | 71 | 57 | 55 | 
18 | O=C(O)C(O)CO (racemic) [DL-glyceric acid] | 54 |  | 54 |  |  | 76 |  |  | 
19 | CC(C)C[C@H](O)C(=O)O [L-2-hydroxyisocaproic acid] | 0 | 0 | 0 | no activity | 68 | 68 | 30 | 77 | 
